# Test results published in patent US10653659B2, “Compositions comprising a compound from the family of avermectins and an agonist compound for at least one of the retinoic acid receptors for treating acne” (GALDERMA SA, priority 2014, dated 2020).
# Several values for one entry are separate records, joined by “and”; a condition that tells them apart may be missing. Equal entries are not always repeated.
# Tested on: patients with acne
# Experiment: Comparative clinical study among patients with acne
# Format: in vivo, human
# Conditions: Treatment A (first treatment, retinoids without ivermectin); scale from 0 to 5; one acne patient per line; duration varies per patient
# Experimental: A comparative study was carried out among patients with acne. […] These same patients then received a second treatment (Treatment B) containing ivermectin and were followed over several months.
# By way of example, mention may be made of: Differin 0.3%®, Epiduo®, Metrogel® and Epiduo Forte® marketed by Galderma Laboratories, Accutane® from Roche Laboratories, and Ziana® from Medicis Pharmaceutical Corp.
row,SMILES,Satisfaction score
1,"COc1ccc(-c2ccc3cc(C(=O)O)ccc3c2)cc1C12CC3CC(CC(C3)C1)C2 [adapalene 0.3%, 6-[3-(1-adamantyl)-4-methoxyphenyl]-2-naphthoic acid]",1 and 0
2,"CC1=C(/C=C/C(C)=C/C=C/C(C)=C/C(=O)O)C(C)(C)CCC1 [tretinoin 0.05%, tretinoin]",0
3,"CC1=C(/C=C/C(C)=C/C=C/C(C)=C/CO)C(C)(C)CCC1 [retinol 0.05%, retinol]",0
